Test results: ChEMBL document CHEMBL1133673, “Crystal structure of FMN-dependent nitroreductase from Escherichia coli B: a prodrug-activating enzyme” (J Med Chem, 2000)

Assays:
[1] = target: NAD(P)H dehydrogenase [quinone] 1 (Homo sapiens) (UniProt P15559); assay: Catalytic constant determined to activate by DT diaphorase in human cell lines
Escherichia coli B = assay: Catalytic constant determined to activate by FMN-dependent nitroreductase enzyme from Escherichia coli B (NTR)

Sequence of NAD(P)H dehydrogenase [quinone] 1 (Homo sapiens) (P15559 whole entry): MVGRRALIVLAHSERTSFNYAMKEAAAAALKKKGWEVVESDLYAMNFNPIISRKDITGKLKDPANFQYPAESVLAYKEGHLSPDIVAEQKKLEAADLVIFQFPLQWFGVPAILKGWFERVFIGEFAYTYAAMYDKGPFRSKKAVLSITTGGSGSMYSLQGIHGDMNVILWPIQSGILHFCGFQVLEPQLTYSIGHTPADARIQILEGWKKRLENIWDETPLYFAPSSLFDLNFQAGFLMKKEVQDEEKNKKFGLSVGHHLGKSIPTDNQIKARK

| Compound | k cat [1] [min⁻¹] | k cat (Escherichia coli B) [min⁻¹] |
| --- | --- | --- |
| NC(=O)c1cc(N2CC2)c([N+](=O)[O-])cc1[N+](=O)[O-] | 0.64 | 360 |
| NC(=O)c1cc(N(CCCl)CCCl)c([N+](=O)[O-])cc1[N+](=O)[O-] |  | 1580 |
